Experimental findings from PMC7311396, “Ultra-large chemical libraries for the discovery of high-affinity peptide binders” (Nature Communications, 2020) are described below.

Assay [1] has as its target T1, 14-3-3γ (Homo sapiens, UniProt P61981).
T1 construct: Full-length human 14-3-3γ was expressed by transforming pROEX HTb plasmid; His6; made in house; host or cells: Rosetta(DE3) Escherichia coli
T1 sequence (P61981 1-247): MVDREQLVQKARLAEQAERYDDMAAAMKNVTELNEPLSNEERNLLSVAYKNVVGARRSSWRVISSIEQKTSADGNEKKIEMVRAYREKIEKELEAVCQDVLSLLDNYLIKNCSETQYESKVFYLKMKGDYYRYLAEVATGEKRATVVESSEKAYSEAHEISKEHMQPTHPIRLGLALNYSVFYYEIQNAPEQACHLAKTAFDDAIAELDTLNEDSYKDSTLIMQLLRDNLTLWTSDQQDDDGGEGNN
Briefly: Direct fluorescence anisotropy binding assay. Here is the method: (§1) All direct fluorescence anisotropy affinity measurements were conducted in FA buffer (10 mM HEPES pH 7.4, 150 mM NaCl, 0.1% (v/v) Tween 20, 0.1% (w/v) BSA). A 1:1 dilution series of 14-3-3γ (starting at 100 μM) was performed in polystyrene non-binding low-volume Corning Black Round Bottom 384-well plates (Corning 4514) containing a fixed concentration FITC-labeled peptide (10 nM or 50 nM). Measurements were performed at ambient temperature using a Tecan Infinite F500 plate reader with the following parameters: λex: 485 (20) nm; λem: 535 (25) nm; mirror: Dichroic 510; flashes: 20; integration time: 50 μs; settle time; 0 μs; gain: manual 90; Z-position: calculated from well. The G-factor was set at 35 mP based on wells containing only the FITC-labeled peptide.
Fluorescence anisotropy binding assay of 14-3-3γ-binding peptides:
as §1, with “All” for “All direct”, “BSA). During each assay a” for “BSA). A”, “series” for “series of 14-3-3γ”, “μM) of 14-3-3γ” for “μM)”, “was made in wells containing a fixed concentration FITC-labeled peptide (10 nM or 50 nM). This was done” for “was performed”, “(Corning 4514).” for “(Corning 4514) containing a fixed concentration FITC-labeled peptide (10 nM or 50 nM).”
For orientation: Fluorescence polarisation rises when a labelled molecule tumbles more slowly, as on binding a larger partner.

Assay [2] concerns the target T1, 14-3-3γ. As to the kind of experiment: Fluorescence anisotropy competition assay with FITC-labeled BiExoS. Type of assay: binding. Here is the method:
All fluorescence anisotropy competition experiments were conducted in FA buffer (10 mM HEPES pH 7.4, 150 mM NaCl, 0.1% (v/v) Tween-20, 0.1% (w/v) BSA). A 1:1 dilution series of unlabeled peptides (starting at 10 μM) were performed in wells containing a fixed concentration FITC-labeled biExoS (10 nM) and 14-3-3γ (20 nM). Measurements were performed at ambient temperature using a Tecan Infinite F500 plate reader with the following parameters: λex = 485 (20) nm; λem = 535 (25) nm, mirror: Dichroic = 510, flashes: 20; integration time: 50 μs; settle time: 0 μs; gain: manual 90; and Z-position: calculated from well. The G-factor was set at 35 mP based on wells containing only the FITC-labeled peptide.
Competition fluorescence anisotropy binding assay of 14-3-3γ-binding peptides:
All fluorescence anisotropy affinity measurements were conducted in FA buffer (10 mM HEPES pH 7.4, 150 mM NaCl, 0.1% (v/v) Tween-20, 0.1% (w/v) BSA). During each assay a 1:1 dilution series (starting at 10 μM) of unlabeled peptides were made in wells containing a fixed concentration FITC-labeled biExoS (10 nM; FITC-O1Pen- […]
[…](GGSGGGGSGG)[…]-CONH2)5, and 14-3-3γ (20 nM).
This is done in polystyrene non -binding low-volume Corning Black Round Bottom 384 - well plates (Corning 4514). Measurements were performed at ambient temperature using a Tecan Infinite F500 plate reader with the following parameters : λex = 485 (20) nm; λem = 535 (25) nm, mirror: Dichroic = 510, flashes: 20; integration time: 50 μs; settle time: 0 μs; gain: manual 90; and Z-position: calculated from well. The G-factor was set at 35 mP based on wells containing only the FITC-labeled peptide.

The next assay relates to anti-HA mAb clone 12ca5. As to the kind of experiment: Competition fluorescence polarization of HA epitope and analogues. The assay is classed as binding. Conditions: for effect of mutation on affinity towards 12ca5: competition FP of HA epitope Ala scan mutants; for IC50: competition FP, 100 nM 12ca5, 28 nM YPYDVPDYAK(FITC)-CONH2, 1 mg/mL BSA, 0.02% Tween 20, 1x PBS, RT, read after 1 h; for Kd: from competition FP, 100 nM 12ca5, 28 nM FITC tracer. Here is the method: Competition fluorescence polarization of HA epitope and analogues:
Solutions of unlabeled peptides (~1 mg/mL each; Supplementary Table 1) in 1x PBS was prepared in the presence of 100 nM 12ca5, 1 mg/mL BSA, 0.02% Tween 20 (120 μL). Fluorescent competitor was added (YPYDVPDYAK(FITC)α-CONH2; 28 nM).
The resulting solution was diluted serially (20 μL) into 100 nM 12ca5, 28 nM […]
YPYDVPDYAK(FITC)α-CONH2, 1 mg/mL BSA, 0.02% Tween 20 in 1x PBS (80 μL; […]
5-fold dilutions). The resulting solutions were transferred to a 96 well plate (Greiner Bio- […]
(RT), and read after 1 h on a Tecan Infinite M1000 plate reader (470 nm excitation; 517 nm detection; 5 nm bandwidth). The concentration of fluorescent […] was determined based on absorbance at 490 nm, using ε = 76,900 M-1cm-1.
Competition fluorescence polarization of HA epitope Ala scan mutants:
Competition fluorescence polarization experiments were carried out as described in Competition fluorescence polarization of HA epitope and analogues.

The next assay concerns the target T2, 14-3-3σΔc (Homo sapiens, UniProt P31947).
T2 construct: The 14-3-3σ isoform with a truncated C-terminus after T321; His6 (cleaved yes); made in house; host or cells: BL21(DE3) Escherichia coli
T2 sequence (P31947 1-231 limits assumed): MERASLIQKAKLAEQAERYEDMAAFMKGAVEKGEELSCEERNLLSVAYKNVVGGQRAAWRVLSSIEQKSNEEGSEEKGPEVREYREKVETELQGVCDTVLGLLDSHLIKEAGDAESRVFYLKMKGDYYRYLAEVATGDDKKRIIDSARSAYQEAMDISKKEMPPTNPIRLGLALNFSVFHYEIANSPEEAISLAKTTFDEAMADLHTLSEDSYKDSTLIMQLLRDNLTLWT
As to the kind of experiment: Direct fluorescence anisotropy binding validation with 14-3-3σΔc. Conditions: 14-3-3σ.

Where [3] appears, read: FITC-labeled peptide (10 or 50 nM), 14-3-3γ dilution from 100 μM, FA buffer pH 7.4, ambient temperature, ± 95% confidence interval, read-out: KD.

Where two headings read alike, the source gives them in different places. Non-standard residues stand in square brackets, D forms with d. Residues, ends and D or L forms follow the SMILES beside them. *: point of attachment. FITC = O=C1OC2(c3ccc(O)cc3Oc3cc(O)ccc32)c2ccc(NC(=S)*)cc21; Phe(4-NO2) = N[C@@H](Cc1ccc([N+](=O)[O-])cc1)C(=O)O; Ala(4-thiazolyl) = N[C@@H](Cc1cscn1)C(=O)O; β3hT = C[C@@H](O)[C@H](N)CC(=O)O; pS = N[C@@H](COP(=O)(O)O)C(=O)O; Aad = N[C@@H](CCCC(=O)O)C(=O)O; Cha = N[C@@H](CC1CCCCC1)C(=O)O; β3hS = N[C@@H](CO)CC(=O)O; Orn = NCCC[C@H](N)C(=O)O; Nva = CCC[C@H](N)C(=O)O; βAla = NCCC(=O)O

On to `NCCCC[C@H](NC(=O)[C@H](Cc1ccc([N+](=O)[O-])cc1)NC(=O)C[C@H](CO)NC(=O)C[C@H](CO)NC(=O)[C@H](Cc1ccc([N+](=O)[O-])cc1)NC(=O)[C@H](COP(=O)(O)O)NC(=O)[C@H](CCCN)NC(=O)C[C@H](CO)NC(=O)[C@H](CC1CCCCC1)NC(=O)[C@@H](N)CC1CCCCC1)C(N)=O` [14-3-3.6] (H-[Cha][Cha][β3hS][Orn][pS][Phe(4-NO2)][β3hS][β3hS][Phe(4-NO2)]K-NH2; N-terminus and C-terminus assumed), for which the dissociation constant (Kd) on 14-3-3γ [1] (setting [3]) turned out to be 3.1 ± 0.3 nM. The IC50 on 14-3-3γ [2] (unlabeled peptide from 10 μM, 10 nM FITC-labeled biExoS, 20 nM 14-3-3γ, FA buffer pH 7.4, ambient temperature, read-out: IC50) came out at 77 ± 8 nM.
On to `C[C@@H](O)[C@@H](CC(=O)N[C@@H](CCCCN)C(N)=O)NC(=O)[C@H](Cc1ccc([N+](=O)[O-])cc1)NC(=O)[C@H](Cc1cscn1)NC(=O)[C@H](CCCC(=O)O)NC(=O)[C@H](COP(=O)(O)O)NC(=O)[C@H](Cc1cscn1)NC(=O)[C@@H](CCC(N)=O)NC(=O)C[C@H](CO)NC(=O)[C@H](N)CCCCN` [NB.1] (H-[dK][β3hS][dQ][Ala(4-thiazolyl)][pS][Aad][Ala(4-thiazolyl)][Phe(4-NO2)][β3hT]K-NH2; N-terminus and C-terminus assumed), for which the Kd on 14-3-3γ [1] (setting [3]) was determined as 64000 ± 20000 nM. Also, at 14-3-3γ [1] (fluorescence anisotropy, FITC-labeled peptides), the “fold weaker binding than the 14-3-3γ-binding peptides” value is recorded as ~ 10,000 fold. At 14-3-3γ [2] (unlabeled peptide, 10 nM FITC-labeled biExoS, 20 nM 14-3-3γ), the “inhibitory activity (competition with BiExoS)” value was “no inhibitory activity”.
As for YPYDVPAYAα-CONH2, the “effect of mutation on affinity towards 12ca5” value (from here on “effect of mutation”) with anti-HA mAb clone 12ca5 is given as “completed abrogated affinity”.
In the case of `CC(C)C[C@@H](N)C(=O)N[C@@H](Cc1ccc([N+](=O)[O-])cc1)C(=O)N[C@@H](CO)CC(=O)N[C@@H](Cc1ccc([N+](=O)[O-])cc1)C(=O)N[C@@H](COP(=O)(O)O)C(=O)N[C@@H](Cc1ccc([N+](=O)[O-])cc1)C(=O)N[C@@H](CO)CC(=O)NCCC(=O)N[C@@H](Cc1ccc([N+](=O)[O-])cc1)C(=O)N[C@@H](CCCCN)C(N)=O` [14-3-3.1] (H-[dL][Phe(4-NO2)][β3hS][Phe(4-NO2)][pS][Phe(4-NO2)][β3hS][βAla][Phe(4-NO2)]K-NH2), the Kd on 14-3-3γ [1] (KD, FITC-labeled peptide (10 or 50 nM), 14-3-3γ dilution from 100 μM, FA buffer pH 7.4, ambient temperature, ± 95% confidence interval) turned out to be 5.7 ± 1 nM. For the same compound, on 14-3-3γ [2], the half-maximal inhibitory concentration (IC50) came to 465 ± 45 nM.
Regarding `NC(=O)[C@@H](Cc1c[nH]cn1)NC(=O)[C@H]1CCCN1C(=O)[C@@H](CCC(=O)O)NC(=O)[C@@H](CC(=O)O)NC(=O)[C@@H](Cc1ccccc1)NC(=O)[C@@H](CCC(=O)O)NC(=O)[C@@H](Cc1ccc(O)cc1)NC(=O)[C@H]1CCCN1C(=O)[C@H](N)Cc1ccc(O)cc1` [ypyefdeph, reference compound] (H-[dY][dP][dY][dE][dF][dD][dE][dP][dH]-NH2), in the assay with anti-HA mAb clone 12ca5, the IC50 was found to be 380000 ± 25000 nM and binding was put at a Kd of 18000 ± 4000 nM.
For the compound YPYAVPDYAα-CONH2, the “effect of mutation” value with anti-HA mAb clone 12ca5 is reported as “deleterious but did not completely abolish binding”.
Take `CC(C)[C@H](NC(=O)[C@H](CC(=O)O)NC(=O)[C@H](Cc1ccc(O)cc1)NC(=O)[C@@H]1CCCN1C(=O)[C@@H](N)Cc1ccc(O)cc1)C(=O)N1CCC[C@H]1C(=O)N[C@@H](CC(=O)O)C(=O)N[C@@H](Cc1ccc(O)cc1)C(=O)NCC(N)=O` [YPYDVPDYG] (H-YPYDVPDYG-NH2; N-terminus assumed): in the assay with anti-HA mAb clone 12ca5, the “effect of mutation” value was “deleterious but did not completely abolish binding”, the IC50 stood at 3600 ± 1000 nM and binding was characterised by a dissociation constant (Kd) of 170 ± 70 nM.
On to YPYDVPDAAα-CONH2, for which the “effect of mutation” value in the assay on anti-HA mAb clone 12ca5 is “completed abrogated affinity”.
`CCC[C@H](NC(=O)[C@H](N)CCCCN)C(=O)N[C@@H](Cc1ccc([N+](=O)[O-])cc1)C(=O)N[C@@H](Cc1cscn1)C(=O)N[C@@H](COP(=O)(O)O)C(=O)N[C@@H](Cc1ccc([N+](=O)[O-])cc1)C(=O)N[C@@H](CO)CC(=O)NCCC(=O)N[C@@H](Cc1ccc([N+](=O)[O-])cc1)C(=O)N[C@@H](CCCCN)C(=O)NCCC(=O)N[C@@H](CCCCNC(=S)Nc1ccc2c(c1)C(=O)OC21c2ccc(O)cc2Oc2cc(O)ccc21)C(N)=O` [FITC-labeled 14-3-3.12] (H-[dK][Nva][Phe(4-NO2)][Ala(4-thiazolyl)][pS][Phe(4-NO2)][β3hS][βAla][Phe(4-NO2)]K[βAla]K(FITC)-NH2): the equilibrium dissociation constant (Kd) on 14-3-3γ [1] (Kd, 14-3-3γ, 0 h after incubation) was 19.5 nM; at 14-3-3γ [1] (Kd, 14-3-3γ, 4 h after incubation) it was 19.4 nM; on 14-3-3γ [1] (Kd, 14-3-3γ, 20 h after incubation) it was 21.9 nM; at 14-3-3σΔc (0 h after incubation) it was 229 nM; at 14-3-3σΔc (4 h after incubation) it was 169 nM; on 14-3-3σΔc (20 h after incubation), 102 nM.

A word on the Kd: it is the concentration at which binding is half-saturated. Broadly, the IC50 is the concentration that gives 50% inhibition.
